Results from ChEMBL document CHEMBL1201862, “PubChem BioAssay data set” (2004).
The source made the active and inactive calls.

Tests used:
[1] = viability of HCT116 lacking mutant beta-catenin – cell-based, human colon tumor, dose response (AID 1045); format: functional;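 also: HCT116 colon tumor cells with beta catenin knocked out; cells exposed to compound for 60 hours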
[2] = Trypanosoma cruzi growth suppression in host cells – NIH3T3 host cells, beta-gal luminescence, confirmation (AID 2044); format: functional, cell-based;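 also: intracellular parasites grown in NIH/3T3 mouse fibroblasts as host cells; luminescent beta-galactosidase reporter signal from transgenic T. cruzi replicating inside host cells; inhibitors lower the luminescence signal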
[3] = NIH3T3 cell viability loss – ATP luminescence, mouse fibroblasts, counter-screen, dose response (AID 2010); format: functional, cell-based;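 also: cells exposed to compound for about 90 hours before reading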
[4] = viability of PTEN-deleted HCT116 cells – cell-based, HCT116 PTEN knockout, dose response (AID 1047); format: functional;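 also: HCT116 colon tumor cells with PTEN knocked out; cells exposed to compound for 60 hours before readout; potency for loss of cell viability measured by luminescence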
[5] = target: G-protein coupled receptor 35 (Homo sapiens, UniProt Q9HC97); assay: inhibition of zaprinast-stimulated GPR35 beta-arrestin translocation – imaging, U2OS, beta-arrestin-GFP, zaprinast agonist, primary screen (AID 2058); format: functional;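 also: antagonist potency meaning inhibition of agonist-induced arrestin redistribution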
Sequence of G-protein coupled receptor 35 (Q9HC97 whole entry): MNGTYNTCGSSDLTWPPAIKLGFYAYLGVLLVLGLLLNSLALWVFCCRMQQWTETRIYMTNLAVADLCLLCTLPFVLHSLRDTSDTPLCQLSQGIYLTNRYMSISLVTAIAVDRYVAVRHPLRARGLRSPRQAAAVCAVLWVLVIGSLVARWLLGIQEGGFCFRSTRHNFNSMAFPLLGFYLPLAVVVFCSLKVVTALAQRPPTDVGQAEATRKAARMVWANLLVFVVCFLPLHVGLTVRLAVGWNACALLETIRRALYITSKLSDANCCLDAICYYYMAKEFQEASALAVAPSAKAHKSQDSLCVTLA

[6] = target: DNA dC->dU-editing enzyme APOBEC-3G (Homo sapiens, UniProt Q9HC16); assay: Dose Response confirmation of small molecule APOBEC3G DNA Deaminase Inhibitors via a fluorescence-based single-stranded DNA deaminase assay. [Related pubchem assays (depositor defined):AID493012, AID493028]; format: functional
Sequence of DNA dC->dU-editing enzyme APOBEC-3G (Q9HC16 whole entry): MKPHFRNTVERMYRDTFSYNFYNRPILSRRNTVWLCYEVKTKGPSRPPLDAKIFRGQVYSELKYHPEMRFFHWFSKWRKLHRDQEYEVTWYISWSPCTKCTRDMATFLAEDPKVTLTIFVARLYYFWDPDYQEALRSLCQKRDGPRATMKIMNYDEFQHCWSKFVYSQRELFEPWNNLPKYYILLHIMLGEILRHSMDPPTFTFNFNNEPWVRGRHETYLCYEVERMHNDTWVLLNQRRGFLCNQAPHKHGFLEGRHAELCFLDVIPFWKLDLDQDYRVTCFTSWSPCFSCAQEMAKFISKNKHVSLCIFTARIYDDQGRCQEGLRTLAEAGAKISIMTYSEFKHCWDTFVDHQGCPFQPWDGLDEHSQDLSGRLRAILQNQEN

[7] = target: DNA dC->dU-editing enzyme APOBEC-3A (Homo sapiens, UniProt P31941); assay: A3A deaminase inhibition for selectivity – biochemical, dose response (AID 504722); format: functional
Sequence of DNA dC->dU-editing enzyme APOBEC-3A (P31941 whole entry): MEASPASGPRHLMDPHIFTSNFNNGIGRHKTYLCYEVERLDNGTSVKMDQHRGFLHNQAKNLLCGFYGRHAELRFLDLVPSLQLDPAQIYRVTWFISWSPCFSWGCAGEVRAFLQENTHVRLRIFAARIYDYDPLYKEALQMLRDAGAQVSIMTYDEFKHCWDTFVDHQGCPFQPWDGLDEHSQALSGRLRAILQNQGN

Streptococcus [8] = assay: GAS UMAA2166 growth inhibition – luminescence, BacTiterGlo, counter-screen for streptokinase expression inhibitor project, dose response (AID 1915); format: functional, organism-based;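 also: potency for reduction of bacterial viability or growth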
[9] = tested on: Streptococcus sp. 'group A'; assay: Streptococcus pyogenes SK(-)GAS viability under kanamycin – luminescence, BacTiterGlo, confirmation, counter-screen for streptokinase expression inhibitor project, dose response (AID 1900); format: functional, organism-based
Streptokinase A = target: T1, Streptokinase A (Streptococcus pyogenes serotype M1, UniProt P10520); assay: viability-normalized secreted streptokinase activity reduction – plasminogen activation absorbance, OD405, dose response (AID 1914); format: functional, Streptococcus pyogenes M1 GAS;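 also: secreted streptokinase activity via plasminogen activation per viability signal from cell pellet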
T1 sequence (P10520 whole entry): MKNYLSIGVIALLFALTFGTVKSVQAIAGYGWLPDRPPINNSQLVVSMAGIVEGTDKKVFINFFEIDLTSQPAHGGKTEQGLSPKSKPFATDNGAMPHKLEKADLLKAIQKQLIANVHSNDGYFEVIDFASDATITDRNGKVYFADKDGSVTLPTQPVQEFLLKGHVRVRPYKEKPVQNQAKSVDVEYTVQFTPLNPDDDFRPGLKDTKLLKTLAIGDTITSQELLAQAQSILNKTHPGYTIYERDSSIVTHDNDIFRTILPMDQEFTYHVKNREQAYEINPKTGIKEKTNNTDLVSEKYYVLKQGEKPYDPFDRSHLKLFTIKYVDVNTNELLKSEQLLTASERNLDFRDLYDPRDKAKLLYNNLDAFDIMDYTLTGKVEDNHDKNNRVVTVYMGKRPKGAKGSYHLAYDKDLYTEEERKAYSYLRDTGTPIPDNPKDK

Streptococcus [10] = assay: Luminescence Microorganism-Based Dose Response Follow up to Identify Compounds Cytotoxic to Streptococcus. [Related pubchem assays: 1677 (Project Summary), 1915, 1914, 1902 (Retest at Dose), 1900 (Counter Screen), 1662 (Primary HTS)]; format: functional, organism-based
HeLa = assay: viability loss in HeLa cells – cell-based, 24 h, cherry-picked samples, cytotoxicity control, dose response (AID 504726); format: functional; details: Homo sapiens;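 also: potency for cytotoxicity as loss of luminescence signal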
[11] = target: Female germline-specific tumor suppressor gld-1 (Caenorhabditis elegans, UniProt Q17339); assay: blockers of GLD-1/TGE RNA complex formation – biochemical, fluorescence polarization, C. elegans, dose response (AID 2802);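 also: fluorescence polarization of labeled TGE RNA bound by purified gld-1 protein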
Sequence of Female germline-specific tumor suppressor gld-1 (Q17339 whole entry): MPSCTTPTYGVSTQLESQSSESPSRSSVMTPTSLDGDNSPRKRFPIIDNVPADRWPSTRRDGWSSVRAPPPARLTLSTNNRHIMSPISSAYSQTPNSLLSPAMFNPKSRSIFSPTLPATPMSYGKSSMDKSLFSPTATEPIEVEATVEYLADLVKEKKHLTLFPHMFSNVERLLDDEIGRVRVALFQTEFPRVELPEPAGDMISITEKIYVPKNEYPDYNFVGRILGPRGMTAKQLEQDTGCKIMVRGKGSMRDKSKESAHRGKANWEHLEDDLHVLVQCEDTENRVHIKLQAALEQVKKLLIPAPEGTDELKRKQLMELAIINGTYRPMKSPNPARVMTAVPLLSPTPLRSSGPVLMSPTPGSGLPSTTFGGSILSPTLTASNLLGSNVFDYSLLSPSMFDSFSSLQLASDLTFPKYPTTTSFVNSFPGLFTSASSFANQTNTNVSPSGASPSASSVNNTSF

Protein Rev = Protein Rev (Human immunodeficiency virus type 1 group M subtype B (isolate HXB2)(HIV-1), UniProt P04618); assay: blockers of HIV Rev/RRE RNA complex – biochemical, fluorescence polarization, HIV-1, dose response (AID 434976); set-up: species or system Human immunodeficiency virus 1
Sequence of Protein Rev (P04618 whole entry): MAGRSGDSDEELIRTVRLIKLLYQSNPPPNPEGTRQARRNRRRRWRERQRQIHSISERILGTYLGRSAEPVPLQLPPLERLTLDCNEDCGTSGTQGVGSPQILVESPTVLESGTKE

[12] = target: Peroxisome proliferator-activated receptor gamma/Nuclear receptor coactivator 1 (Homo sapiens, UniProt P37231); assay: TR-FRET dose response biochemical High Throughput Screening assay for agonists of the steroid receptor coactivator 1 (SRC-1) recruitment by the peroxisome proliferator-activated receptor gamma (PPAR gamma): non-selective agonists. [Related pubchem assays (depositor defined):AID1300, AID1808, AID504735, AID631]; format: protein assay
Sequence of Peroxisome proliferator-activated receptor gamma/Nuclear receptor coactivator 1 (P37231 whole entry): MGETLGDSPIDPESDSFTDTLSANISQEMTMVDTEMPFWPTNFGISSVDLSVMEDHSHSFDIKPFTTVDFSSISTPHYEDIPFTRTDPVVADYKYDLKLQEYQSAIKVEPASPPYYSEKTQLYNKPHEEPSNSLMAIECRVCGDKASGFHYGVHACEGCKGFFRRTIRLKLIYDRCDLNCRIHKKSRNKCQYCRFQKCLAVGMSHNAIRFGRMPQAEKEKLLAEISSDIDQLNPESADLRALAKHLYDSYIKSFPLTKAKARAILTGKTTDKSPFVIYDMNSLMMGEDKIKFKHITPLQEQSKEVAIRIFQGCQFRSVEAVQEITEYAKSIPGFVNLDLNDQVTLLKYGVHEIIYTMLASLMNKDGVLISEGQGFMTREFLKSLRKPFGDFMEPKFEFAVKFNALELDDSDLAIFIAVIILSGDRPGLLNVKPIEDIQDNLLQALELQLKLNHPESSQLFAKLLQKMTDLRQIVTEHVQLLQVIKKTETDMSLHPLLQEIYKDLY
Sequence of Peroxisome proliferator-activated receptor gamma/Nuclear receptor coactivator 1 (Q15788 whole entry, further chain): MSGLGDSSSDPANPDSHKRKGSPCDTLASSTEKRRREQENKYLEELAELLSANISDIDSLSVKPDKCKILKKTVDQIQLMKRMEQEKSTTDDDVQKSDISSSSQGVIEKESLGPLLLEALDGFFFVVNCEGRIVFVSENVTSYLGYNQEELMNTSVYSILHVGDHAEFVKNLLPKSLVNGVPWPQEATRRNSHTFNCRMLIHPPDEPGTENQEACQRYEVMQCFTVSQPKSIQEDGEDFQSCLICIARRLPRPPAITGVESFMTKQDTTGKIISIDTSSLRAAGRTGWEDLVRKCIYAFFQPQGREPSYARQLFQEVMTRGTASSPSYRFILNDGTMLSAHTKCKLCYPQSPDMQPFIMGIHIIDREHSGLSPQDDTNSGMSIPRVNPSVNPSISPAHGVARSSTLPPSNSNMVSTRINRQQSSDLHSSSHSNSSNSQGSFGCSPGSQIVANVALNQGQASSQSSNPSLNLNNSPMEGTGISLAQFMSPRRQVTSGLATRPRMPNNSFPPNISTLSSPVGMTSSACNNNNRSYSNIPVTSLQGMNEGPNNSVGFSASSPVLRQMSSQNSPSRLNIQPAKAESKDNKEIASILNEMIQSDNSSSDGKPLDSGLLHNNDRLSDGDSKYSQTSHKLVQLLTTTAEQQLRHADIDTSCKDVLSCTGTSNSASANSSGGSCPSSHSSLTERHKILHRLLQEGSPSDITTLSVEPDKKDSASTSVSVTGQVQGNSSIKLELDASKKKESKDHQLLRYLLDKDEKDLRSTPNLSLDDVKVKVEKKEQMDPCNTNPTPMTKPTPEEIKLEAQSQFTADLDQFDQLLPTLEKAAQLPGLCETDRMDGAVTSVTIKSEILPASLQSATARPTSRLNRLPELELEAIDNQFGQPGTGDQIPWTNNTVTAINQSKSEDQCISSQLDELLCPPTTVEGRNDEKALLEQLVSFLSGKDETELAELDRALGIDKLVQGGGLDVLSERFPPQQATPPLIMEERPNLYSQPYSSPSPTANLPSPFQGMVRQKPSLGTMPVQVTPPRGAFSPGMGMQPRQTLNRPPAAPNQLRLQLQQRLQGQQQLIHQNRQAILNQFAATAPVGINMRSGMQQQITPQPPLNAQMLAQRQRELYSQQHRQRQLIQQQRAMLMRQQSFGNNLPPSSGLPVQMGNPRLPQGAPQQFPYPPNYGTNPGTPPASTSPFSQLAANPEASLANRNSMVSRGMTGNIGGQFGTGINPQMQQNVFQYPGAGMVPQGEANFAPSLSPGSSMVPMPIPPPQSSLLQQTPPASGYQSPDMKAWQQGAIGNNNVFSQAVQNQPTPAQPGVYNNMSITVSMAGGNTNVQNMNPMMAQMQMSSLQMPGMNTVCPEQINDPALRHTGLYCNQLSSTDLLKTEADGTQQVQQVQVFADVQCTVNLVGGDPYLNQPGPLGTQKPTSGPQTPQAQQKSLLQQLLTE

[13] = target: Photoreceptor-specific nuclear receptor (Homo sapiens, UniProt Q9Y5X4); format: functional;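 also: potency for compounds that break the NR2E3 corepressor complex and count as activators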
Sequence of Photoreceptor-specific nuclear receptor (Q9Y5X4 whole entry): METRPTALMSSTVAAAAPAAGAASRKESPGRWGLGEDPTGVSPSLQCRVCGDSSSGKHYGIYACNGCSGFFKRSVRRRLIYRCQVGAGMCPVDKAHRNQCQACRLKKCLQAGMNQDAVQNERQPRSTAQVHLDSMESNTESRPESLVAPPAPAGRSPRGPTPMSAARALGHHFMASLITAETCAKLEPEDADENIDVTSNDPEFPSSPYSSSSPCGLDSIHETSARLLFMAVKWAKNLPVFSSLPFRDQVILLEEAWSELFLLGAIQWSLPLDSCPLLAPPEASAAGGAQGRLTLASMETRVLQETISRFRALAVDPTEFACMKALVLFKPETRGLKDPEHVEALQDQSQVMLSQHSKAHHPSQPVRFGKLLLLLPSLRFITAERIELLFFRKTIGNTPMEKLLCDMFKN

[14] = target: Peroxisome proliferator-activated receptor gamma/Nuclear receptor corepressor 2 (Homo sapiens, UniProt P37231+Q9Y618); format: functional
[15] = target: Peroxisome proliferator-activated receptor gamma/Nuclear receptor coactivator 2 (Homo sapiens, UniProt P37231); assay: (§1) TR-FRET dose response biochemical High Throughput Screening assay for agonists of the steroid receptor coactivator 2 (SRC-2) recruitment by the peroxisome proliferator-activated receptor gamma (PPAR gamma): non-selective agonists. [Related pubchem assays: 1297, 1032 ]; format: functional
[16] = target: Peroxisome proliferator-activated receptor gamma/Nuclear receptor coactivator 3 (Homo sapiens, UniProt P37231); assay: as §1, with “3 (SRC-3)” for “2 (SRC-2)”, “1301 (Confirmation screen.), 1048 (Primary screen.)]” for “1297, 1032 ]”; format: functional
fMet-Leu-Phe receptor = fMet-Leu-Phe receptor (Homo sapiens, UniProt P21462); assay: formyl peptide receptor binders – dose response (AID 519); format: functional
Sequence of fMet-Leu-Phe receptor (P21462 whole entry): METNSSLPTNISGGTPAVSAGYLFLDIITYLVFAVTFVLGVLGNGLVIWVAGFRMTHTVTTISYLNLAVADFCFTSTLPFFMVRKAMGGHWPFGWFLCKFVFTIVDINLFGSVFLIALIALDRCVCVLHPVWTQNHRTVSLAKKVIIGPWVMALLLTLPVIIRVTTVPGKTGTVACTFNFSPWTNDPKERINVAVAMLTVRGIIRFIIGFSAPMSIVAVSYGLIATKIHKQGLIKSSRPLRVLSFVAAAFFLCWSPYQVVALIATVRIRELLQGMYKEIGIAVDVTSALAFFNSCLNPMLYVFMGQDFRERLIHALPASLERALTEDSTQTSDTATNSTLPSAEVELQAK

In the case of `CCOc1ccc(NC(=O)C(C)Oc2ccccc2C(=O)Nc2ccc(C)c(Cl)c2)cc1` (stereo not given), the EC50 [1] is reported as 19.6 µM (active), the EC50 [2] is reported as 2.06 µM (active) and the EC50 [3] is reported as > 60 µM (not active). The EC50 [4] was 17.9 µM (active) and the IC50 [5] was 1.31 µM (active).

For `CCc1cc(-c2n[nH]c(=S)n2CC)cs1`, the IC50 [6] was 5.02 µM (active) and the IC50 [7] was > 100 µM (inactive).

With `CC1CCN(C(=O)N2c3ccccc3Sc3ccccc32)CC1` the EC50 (Streptococcus [8]) was 28.5 µM (active), the EC50 [9] was 13.8 µM (active) and the EC50 (Streptokinase A) was > 150 µM (not active). The EC50 (Streptococcus [10]) was > 500 µM (not active).

With `CCN(CCCNC(=O)Cn1cc2c(n1)CCCC2)c1cccc(C)c1` the AC50 (HeLa) was > 350 µM (inactive).

In the case of `C=CCNC(=O)/C(C#N)=C/c1ccccc1[N+](=O)[O-]`, the IC50 [11] is reported as 1.1 µM (active) and the IC50 (Protein Rev) is reported as 10.4 µM (not active).

For `COc1cccc2cc(C(=O)C3=C(O)C(=O)N(Cc4ccco4)C3c3cccnc3)oc12` (stereo not given), the EC50 [12] was > 79.4 µM (inactive), the IC50 [13] was > 39.8 µM (not active) and the IC50 [14] was 2.79 µM (active). For the same molecule, the EC50 [15] was > 79.4 µM (not active), the EC50 [16] was > 79.4 µM (not active) and the Ki (fMet-Leu-Phe receptor) was > 66.7 µM (inactive).
